Data: patent US20180327367A1, “MACROCYCLIC BROAD SPECTRUM ANTIBIOTICS” (priority 2015, published 2018)
Converted amounts (≈) assume the structure as drawn. Read-outs that look alike come from different tables or passages of the source.

Experiments:
[1] = test system: Escherichia coli MC4100 harboring the IMP4213 (E. coli IMP); assay: microbe, parasite or virus in culture; type: cell-based; conditions: Escherichia coli, 22 h, read-out: MIC (μg/mL) E. coli IMP, E. coli MC4100 IMP4213, increased outer-membrane permeability; 35° C., 22 hours
Procedure, shortened: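 Ten 2-fold dilutions, from 4 μg/mL or from 0.5 μg/mL depending on protocol, are challenged with bacteria at OD600 0.0005 in Tween-80-supplemented cation-adjusted Mueller Hinton Broth. Plates incubate 22 hours at 35° C per CLSI. The E. coli IMP4213 strain has increased outer-membrane permeability.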

[2] = test system: Methicillin Resistant Staphylococcus aureus strain USA 300, NRS384; assay: Minimum inhibitory concentration, broth micro-dilution (CLSI), S. aureus; type: cell-based; conditions: Staphylococcus aureus, MRSA / NRS 384 / USA300, 22 h, 35° C., 22 hours
Procedure, shortened: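 Colonies grown 20 hours at 35° C were suspended in cation-adjusted Mueller Hinton Broth with 0.002% Tween-80. Cells were then added to 2-fold compound dilutions starting at 4 or 0.5 μg/mL, at OD600 0.0005.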

[3] = test system: Escherichia coli ATCC 25922; assay: Minimum inhibitory concentration, broth micro-dilution (CLSI), E. coli; type: cell-based; conditions: Escherichia coli, ATCC25922, 22 h, 35° C., 22 hours
[4] = target: T1, SpsB (Staphylococcus aureus signal peptidase) (Staphylococcus aureus, UniProt P0A070); assay: cell-based; type: biochemical; conditions: SpsB IC50, whole-cell S. aureus (USA300 background, overexpressing SpsB) as SpsB source; fluorogenic peptide substrate, kinetic read 30 min
T1 construct: This assay uses a suspension of Staphylococcus aureus cells as a source of SpsB instead of recombinant SpsB protein; endogenous in cells; host or cells: S. aureus, USA300 background, overexpressing SpsB (whole-cell suspension from frozen pellets)
Procedure, shortened: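 Cleavage of an internally quenched (Dabcyl)βAla-KPAKAAE(Edans) peptide, added as 20 μM solution mixed 1:1 with cells, was followed for 30 min at 340/490 nm. SpsB came from a suspension of SpsB-overexpressing USA300 S. aureus in Tween-80-containing PBS buffer. Slopes plotted against 3-fold compound dilutions gave IC50.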

[5] = MRSA USA 300 NRS384, read-out: MIC (μg/mL) S. aureus
[6] = E. coli ATCC 25922, read-out: MIC (μg/mL) E. coli

T1 sequence (P0A070 whole entry): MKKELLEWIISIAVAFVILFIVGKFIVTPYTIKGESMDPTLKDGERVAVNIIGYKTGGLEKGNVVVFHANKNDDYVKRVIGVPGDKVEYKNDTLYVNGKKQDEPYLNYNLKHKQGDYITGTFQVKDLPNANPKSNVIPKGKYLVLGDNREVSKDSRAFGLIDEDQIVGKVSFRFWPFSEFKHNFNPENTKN

SMILES	MIC [1] [µg/mL]	MIC [2, 5] [µg/mL]	MIC [3, 6] [µg/mL]	IC50 [4] [nM]	MIC ([2]; read-out: MIC (μg/mL) S. aureus, MRSA USA 300 NRS384) [µg/mL]	MIC ([3]; read-out: MIC (μg/mL) E. coli, E. coli ATCC 25922) [µg/mL]
CCCCCOc1ccc(C(=O)N[C@@H](CCN)C(=O)N(C)[C@@H]2C(=O)N[C@@H](C)C(=O)N[C@H](C(=O)NCC#N)Cc3ccc(OCCN)c(c3)-c3cc2ccc3OCCN)c(Cl)c1 [Compound 270]	0.016 (≈ 0.0186 µM)	0.094 (≈ 0.109 µM)	0.63 (≈ 0.73 µM)	0.89		
CCCCCCOc1ccc(C(=O)N[C@@H](CCN)C(=O)N(C)[C@@H]2C(=O)N[C@@H](C)C(=O)N[C@H](C(=O)NCC#N)Cc3ccc(OCCN)c(c3)-c3cc2ccc3OCCN)c(Cl)c1 [Compound 271]	0.016 (≈ 0.0183 µM)	0.047 (≈ 0.0536 µM)	0.31 (≈ 0.354 µM)	1.1		
CCCCCCCCOc1ccc(C(=O)N[C@@H](CCN)C(=O)N(C)[C@@H]2C(=O)N[C@@H](C)C(=O)N[C@H](C(=O)NCC#N)Cc3ccc(OCCN)c(c3)-c3cc2ccc3OCCN)c(Cl)c1 [Compound 272]	0.0078 (≈ 0.00862 µM)	0.047 (≈ 0.052 µM)	0.13 (≈ 0.144 µM)	0.7		
CCCCCCCOc1ccc(C(=O)N[C@@H](CCN)C(=O)N(C)[C@@H]2C(=O)N[C@@H](C)C(=O)N[C@H](C(=O)NCC#N)Cc3ccc(OCCN)c(c3)-c3cc2ccc3OCCN)c(C(F)(F)F)c1 [Compound 273]	0.016 (≈ 0.0173 µM)	0.031 (≈ 0.0335 µM)	0.5 (≈ 0.541 µM)	0.6		
Cc1cc(OCCC(C)C)ccc1C(=O)N[C@@H](CCN)C(=O)N(C)[C@@H]1C(=O)N[C@@H](C)C(=O)N[C@H](C(=O)NCC#N)Cc2ccc(OCCN)c(c2)-c2cc1ccc2OCCN [Compound 274]	0.02 (≈ 0.0238 µM)	0.13 (≈ 0.154 µM)	1.3 (≈ 1.54 µM)	0.79		
Cc1cc(OCC2CCCCC2)ccc1C(=O)N[C@@H](CCN)C(=O)N(C)[C@@H]1C(=O)N[C@@H](C)C(=O)N[C@H](C(=O)NCC#N)Cc2ccc(OCCN)c(c2)-c2cc1ccc2OCCN [Compound 275]	0.014 (≈ 0.0161 µM)	0.063 (≈ 0.0726 µM)	0.38 (≈ 0.438 µM)	0.55		
Cc1cc(OCC(C)C)ccc1C(=O)N[C@@H](CCN)C(=O)N(C)[C@@H]1C(=O)N[C@@H](C)C(=O)N[C@H](C(=O)NCC#N)Cc2ccc(OCCN)c(c2)-c2cc1ccc2OCCN [Compound 276]	0.031 (≈ 0.0374 µM)	0.58 (≈ 0.7 µM)	2 (≈ 2.42 µM)	1.8		
Cc1cc(OCCC(C)(C)C)ccc1C(=O)N[C@@H](CCN)C(=O)N(C)[C@@H]1C(=O)N[C@@H](C)C(=O)N[C@H](C(=O)NCC#N)Cc2ccc(OCCN)c(c2)-c2cc1ccc2OCCN [Compound 277]	0.012 (≈ 0.014 µM)	0.063 (≈ 0.0736 µM)	1 (≈ 1.17 µM)	1.1		
Cc1cc(OCC(C)(C)C)ccc1C(=O)N[C@@H](CCN)C(=O)N(C)[C@@H]1C(=O)N[C@@H](C)C(=O)N[C@H](C(=O)NCC#N)Cc2ccc(OCCN)c(c2)-c2cc1ccc2OCCN [Compound 280]	0.027 (≈ 0.0321 µM)	0.13 (≈ 0.154 µM)	0.63 (≈ 0.748 µM)	2		
CCCCCCCOc1ccc(C(=O)N[C@@H](CCCN)C(=O)N(C)[C@@H]2C(=O)N[C@@H](C)C(=O)N[C@H](C(=O)NCC#N)Cc3ccc(OCCN)c(c3)-c3cc2ccc3OCCN)c(C)c1 [Compound 281]	0.0078 (≈ 0.00882 µM)	0.023 (≈ 0.026 µM)	0.25 (≈ 0.283 µM)	0.75		
CCCCCCCOc1ccc(C(=O)N[C@@H](CCCN)C(=O)N(C)[C@@H]2C(=O)N[C@@H](C)C(=O)N[C@H](C(=O)NCC#N)Cc3ccc(OCCN)c(c3)-c3cc2ccc3OCCN)c(Cl)c1 [Compound 282]	0.0078 (≈ 0.00862 µM)	0.016 (≈ 0.0177 µM)	0.25 (≈ 0.276 µM)	0.71		
CCCCC#CCOc1ccc(C(=O)N[C@@H](CCN)C(=O)N(C)[C@@H]2C(=O)N[C@@H](C)C(=O)N[C@H](C(=O)NCC#N)Cc3ccc(OCCN)c(c3)-c3cc2ccc3OCCN)c(Cl)c1 [Compound 283]	0.012 (≈ 0.0135 µM)	0.063 (≈ 0.0711 µM)	1 (≈ 1.13 µM)	0.87		
C#CCC(C)(C)COc1ccc(C(=O)N[C@@H](CCN)C(=O)N(C)[C@@H]2C(=O)N[C@@H](C)C(=O)N[C@H](C(=O)NCC#N)Cc3ccc(OCCN)c(c3)-c3cc2ccc3OCCN)c(C)c1 [Compound 284]	0.012 (≈ 0.0139 µM)			0.82	0.13 (≈ 0.15 µM)	1 (≈ 1.15 µM)
CCCC(C)(C)COc1ccc(C(=O)N[C@@H](CCN)C(=O)N(C)[C@@H]2C(=O)N[C@@H](C)C(=O)N[C@H](C(=O)NCC#N)Cc3ccc(OCCN)c(c3)-c3cc2ccc3OCCN)c(C)c1 [Compound 288]	0.0078 (≈ 0.00896 µM)	0.063 (≈ 0.0724 µM)	0.25 (≈ 0.287 µM)	1.1		
